# Test results published in patent US8580776B2, “Compositions and methods for treating neurodegenerating diseases” (The Board of Trustees of the University of Illinois, priority 2007, dated 2013).
# Legend:
# TgAPP H6 mice = test: Amyloid plaque burden (Aβ1-42 staining) in brain sections of TgAPP H6 mice; assay type: in vivo
# Excerpt: Transgenic mice (H6) overexpressing the Indiana V717F mutation of human APP under control of the PDGFR promoter (Mucke et al., 2000, “High-level neuronal expression of abeta 1-42 in wild-type human amyloid protein precursor transgenic mice: synaptotoxicity without plaque formation,” J Neurosci 20:4050-8) were obtained from Dr. Lennart Mucke (J. David Gladstone Institute, San Francisco, Calif.). Male hemizygous H6 mice were bred to wild type C57BL6 (Charles River Breeding) females to obtain hemizygous progeny. Genotype was verified by PCR analysis of tail DNA using the forward primer 5′-GGTGAGTTTGTAAGTGATGCC-3′ (SEQ ID NO:1) and reverse primer 5′-TCTTCTTCTTCCACCTCAGC-3′ (SEQ ID NO:2). Animals were housed in groups of four under standard conditions with full access to food and water.
# Hemizygous male H6 mice (aged 3 to 4 months) were injected with vehicle or with DSP4 (5 mg per kg; i.p., every two weeks) and all mice were sacrificed at age 9 months. This protocol (a low, chronic dose) results in 70% loss of LC noradrenergic neurons. Brains were dissected, the left hemispheres were fast frozen in isopentane at −30° C. and stored at −80° C. for subsequent protein and RNA studies. The right hemispheres were processed for immunohistochemistry.
# TgAPP H6 mice were treated with DSP4 (5 mg/kg every two weeks) beginning at age 3-4 months, and brain sections analyzed at age 9 months (FIGS. 1A-1B). Hemibrains were fixed overnight in 4% paraformaldehyde in 0.1M phosphate buffer, then overnight in 10% sucrose in 0.1M phosphate buffer, and then frozen in isopentane at −30° C. Serial sections (35 um thick) were prepared on a cryostat, and stored in cryoprotective solution (0.1M phosphate buffer: ethyleneglycol: glycerol 30:40:30) at −20° C. For Aβ1-42 staining, sections were treated with formic acid (95%, 3 min), incubated overnight at 4° C. with primary antibody directed against Aβ1-42 (1:4000 dilution, Calbiochem FCA3542 rabbit polytonal antibody raised against a synthetic peptide corresponding to amino acids 706-713 of human APP), washed, then incubated with anti-rabbit biotinylated secondary antibody (Vector BA-1000, diluted 1:400) and visualized using an ABC kit (Vector). For quantification of Aβ plaques, for each animal (n=6 vehicle treated and n=6 DSP4 treated mice) 8 stained, serial sections separated by 210 μm and spanning approximately 1.5 mm between Bregma points −1.50 mm to −3.00 mm were mounted onto glass slides and imaged with a Zeiss Axiophot 2 microscope, equipped with an Axiocam B&W MRm camera. Sections were viewed at 100× using a 10× objective, and the average plaque number and % area stained (relative to the total section area of 21 mm^2) per section were determined. The threshold of brightness intensity (range black=0 to white=255) used for selection of plaques was established by determining average pixel intensity from 3 areas devoid of staining, and then adjusting that value to maximize inclusion of all visibly-stained plaques while minimizing inclusion of background areas. This value was used for all sections (all stained at the same time). For all sections, visual inspection following automated counting was done to ensure exclusion of meninges, ventricular space, or other artifacts.
# Representative sections from vehicle (FIG. 1A, containing 19 plaques) and DSP4 treated (B, containing 64 plaques) mice are shown in FIG. 1. Plaque burden (number and area stained) was quantified using Axiovision 4.5 Measurement Wizard software. Sections were viewed at 100× using a 10× objective, and the average plaque number (FIG. 1C) and % area stained (FIG. 1D, relative to the total section area of 21 mm^2) per section determined (n=8 sections per animal). The data was analyzed by two-tailed t-test assuming equal variances; *, P <0.05. The relative size distribution for all plaques detected in vehicle (n=626) and DSP4 treated (n=3009) brain sections is shown (FIG. 1E). […]
# [1] = system: tyrosine hydroxylase (TH); test: QPCR of tyrosine hydroxylase mRNA in DSP4-treated rats; assay type: in vivo, rat
# Description: In this experiment, the effects of DSP4 on tyrosine hydroxylase (TH) and IkBα expression were analyzed. Adult rat Sprague Dawley rats were treated with the selective neurotoxin DSP4 to lesion locus ceruleus (LC) noradrenergic neurons and deplete cortical NA levels as described in Example 1.
# RNA samples from control or DSP4-treated rats (n=4 each) were converted to cDNA and analyzed by QPCR for relative levels of tyrosine hydroxylase (TH) (FIG. 6A) in the locus ceruleus (LC).
# Total cytoplasmic RNA from tissues was prepared from cells using TRIZOL reagent according to manufacturer procedures (Invitrogen/GIBCO); aliquots were converted to cDNA using random hexamer primers, and mRNA levels were estimated by quantitative touchdown PCR (QPCR). Conditions were 35 cycles of denaturation at 94° C. for 10 s; annealing at 58-64° C. for 15 s; and extension at 72° C. for 20 s on a Corbett Rotorgene Real-Time PCR unit (Corbett, Australia). The PCR mastermix contained SYBR Green (1 μl diluted 1:10,000 SybrGreen I 10,000× concentrate, Molecular Probes, Eugene, Oreg.). Relative mRNA concentrations were calculated from the takeoff point of reactions using manufacturer's software. Melting curve analysis and agarose gel electrophoresis were performed to ensure production of single and corrected size products. Relative mRNA values were normalized to housekeeping genes, either α-Tubulin (α-Tub), β-Actin (βAct) or glyceraldehyde-3-phosphate dehydrogenase (GDH). The primers used for QPCR (all listed 5′ to 3′) were: […]
# After acclimation (7-10 days), rats received two intraperitoneal injections (one week apart) of either N-(2-chloroethyl)-N-ethyl-2 bromobenzylamine (DSP4, 5 mg/kg) dissolved in PBS or PBS alone (FIG. 6A). Four weeks after the second treatment, the animals were anesthetized with pentobarbital (50 mg/kg i.p.), and placed in a stereotaxic frame (Stoelting, USA) on a heating blanket. Body temperature was maintained at 37±0.5° C. for the time of surgery. […]
structure (smiles),measurement,setting,value
"CCN(CCCl)Cc1ccccc1Br [DSP4, N-(2-chloroethyl)-N-ethyl-2-bromobenzylamine]",average plaque number,"TgAPP H6 mice; DSP4 5 mg/kg every two weeks, age 9 months, vehicle 13.5±3",62.7±18 per section
same,average area stained,"TgAPP H6 mice; DSP4 5 mg/kg every two weeks, age 9 months, vehicle 1,810±464","11,100±3,000 μm^2"
same,"plaques >5,000 μm^2 out of all plaques detected","TgAPP H6 mice; DSP4 sections, vehicle 1/626",16/3009
same,relative plaque size distribution,TgAPP H6 mice; age 9 months,did not significantly alter
same,increase in plaque number,"TgAPP H6 mice; age 9 months, versus vehicle",5 fold
same,area stained as % total sectional area,"TgAPP H6 mice; age 9 months, vehicle 0.008%",0.051%
same,plaque appearance in non-transgenic wild type littermates,TgAPP H6 mice; data not shown,did not induce plaque appearance
same,average plaque size,"TgAPP H6 mice; n=3009 plaques, vehicle 135±18, increase not statistically significant",174±8 μm^2
same,"plaques with size greater than 7,000 μm^2",TgAPP H6 mice; out of 3009 counted,13 out of 3009
same,plaques in representative section,"TgAPP H6 mice; representative section FIG. 1B, vehicle 19",64 plaques
same,TH mRNA levels in the LC,"[1]; DSP4-treated rats, n=4",57 % versus control levels
same,reduction in cortical TH mRNA levels,"[1]; not statistically significant, P>0.05",25%
same,reduction of LC TH mRNA,"[1]; versus control values, n=4",43%
